Measurements as given in publication PMC3503319 (Biochemistry, 2010).

Target: Mtb DTBS (BioD) (Mycobacterium tuberculosis, UniProt P9WPQ5)
Sequence (P9WPQ5 whole entry): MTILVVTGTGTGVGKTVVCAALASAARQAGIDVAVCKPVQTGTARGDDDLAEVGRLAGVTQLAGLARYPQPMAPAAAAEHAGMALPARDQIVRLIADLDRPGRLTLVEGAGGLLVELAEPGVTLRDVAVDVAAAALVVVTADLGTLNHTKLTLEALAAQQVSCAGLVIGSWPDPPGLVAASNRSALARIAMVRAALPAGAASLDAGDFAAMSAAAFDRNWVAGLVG

Compound: C[C@H](N)[C@@H](CCCCCC(=O)O)NC(=O)O [DAPA-carbamate]
- X-ray crystal structure, 2.05 Å (crystal soaked in 10 mM DAPA): additional electron density attached to the N7 atom of DAPA that fits the carbon dioxide
